The source of these data is patent US9814796B2, “Methods for sterilization and/or disinfection” (P[…] OF NEVADA, LLC, priority 2015, dated 2017).

Where only a bound is given, the exact number is not on record here.

This experiment relates to Bacillus atrophaeus ATCC 9372 spores. Put plainly: Spore inactivation by 3.25 wt. % performic acid at various times and temperatures. Type of experiment: cell-based. The note with it: for Colony Forming Units (CFU) / Log Reduction: 3.25 wt. % performic acid. From the text: An aqueous solution containing x weight percent of performic acid may be prepared by (1) diluting a commercially available aqueous solution of hydrogen peroxide (e.g., a 30 weight percent aqueous solution or a 50 weight percent aqueous solution) down to a concentration of 2x; (2) diluting a commercially available aqueous solution of formic acid (e.g., a 95 weight percent aqueous solution) down to a concentration of 2x; and (3) combining the diluted solution of hydrogen peroxide and the diluted solution of formic acid in a 1:1 volume, thereby providing performic acid in a concentration of x.
The procedure for performing spore inactivation tests in solution is as follows: Bacillus atrophaeus ATCC 9372 spores in saline were equilibrated in a water bath at the preselected test temperature, as was a formic acid/hydrogen peroxide mixture. At an initial time (T0), a volume of the formic acid/peroxide mixture was added to the spore preparation, such that the pre-chosen test concentration of the sterilization agent was achieved. At preselected times after the addition of the sterilization agent to the spore preparation, aliquots of the spore-treated mixture were transferred into a solution containing an excess of catalase (MP Biomedical) in order to quench the peroxide reaction. This solution was then serially ten-fold diluted and spread-plated onto tryptic soy agar plates that were subsequently incubated at 35° C. for 48 hours and enumerated.
An aqueous solution containing 3.25 wt. % of performic acid was prepared by (1) diluting a 50 wt. % aqueous solution of hydrogen peroxide down to a concentration of 6.5 wt. %; (2) diluting a 95 wt. % aqueous solution of formic acid down to a concentration of 6.5 wt. %; and (3) combining the 6.5 wt. % solution of hydrogen peroxide and the 6.5 wt. % solution of formic acid in a 1:1 volume.

For performic acid, the “Colony Forming Units (CFU)” value reads like this: (10° C., 5 seconds) 0 CFU; (10° C., 10 seconds) 0 CFU; (10° C., 15 seconds) 0 CFU; (20° C., 5 seconds) 0 CFU; (20° C., 10 seconds) 0 CFU; (20° C., 15 seconds) 0 CFU. In addition, the “Log Reduction” value by setting is: (10° C., 5 seconds) greater than 7.8; (10° C., 10 seconds) greater than 7.8; (10° C., 15 seconds) greater than 7.8; (20° C., 5 seconds) greater than 8; (20° C., 10 seconds) greater than 8; (20° C., 15 seconds) greater than 8. Also, the “effectiveness in killing spores (in words)” value (room temperature and below (e.g., 5° C. or 10° C.), exposure times as little as 5 seconds) is “surprisingly and unexpectedly effective”.
